Results published in US20080293683A1, “Hormone Replacement Therapy” (University of Kansas Medical Center, priority 2007, published 2008).
“And” between values parts separate entries of the source, which are not always exact repeats. Identical values can stand only once. Like-named read-outs stand apart in the source and are kept apart here.

Columns and labels:
[1] = target: T1, recombinant human ERα (Homo sapiens, UniProt P03372); assay: ERα binding assay: competition of [3H]E2 binding by competing estrogens; settings: for RBAα % (relative binding affinity for ERα, of E2): calculated against E2 = 100; for RBAα/RBAβ: ratio of relative binding affinities ERα over ERβ; for IC50: read-out: ERα IC50; for binding affinity for ERα (in words): concentrations up to 1000 nM; for RBAα/RBAβ determined by extrapolating the curves: extrapolated from curves of FIGS. 3-7, IC50 not reached
T1 construct: purchased PanVera Corporation (Madison, Wis.); host or cells: baculovirus-mediated expression system
T1 sequence (P03372 1-595): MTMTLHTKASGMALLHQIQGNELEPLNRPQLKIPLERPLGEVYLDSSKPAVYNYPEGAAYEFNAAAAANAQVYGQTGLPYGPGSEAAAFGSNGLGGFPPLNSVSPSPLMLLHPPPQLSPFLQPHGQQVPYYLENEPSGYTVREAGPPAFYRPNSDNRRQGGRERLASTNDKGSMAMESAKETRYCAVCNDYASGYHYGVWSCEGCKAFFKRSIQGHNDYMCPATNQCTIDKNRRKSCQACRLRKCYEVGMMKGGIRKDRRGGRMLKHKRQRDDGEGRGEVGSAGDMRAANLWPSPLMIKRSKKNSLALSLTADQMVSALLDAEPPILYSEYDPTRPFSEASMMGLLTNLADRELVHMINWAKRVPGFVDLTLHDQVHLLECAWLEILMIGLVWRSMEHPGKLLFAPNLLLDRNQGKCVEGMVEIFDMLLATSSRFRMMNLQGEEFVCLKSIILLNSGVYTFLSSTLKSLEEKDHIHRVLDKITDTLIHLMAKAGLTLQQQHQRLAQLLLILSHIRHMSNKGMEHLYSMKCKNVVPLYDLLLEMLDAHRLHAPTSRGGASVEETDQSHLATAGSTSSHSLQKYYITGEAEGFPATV
Excerpt: (§1) The recombinant human ERα and ERβ proteins and bovine serum albumin (BSA) were obtained from PanVera Corporation (Madison, Wis.). According to the supplier, the recombinant human ERα and ERβ were produced in a baculovirus-mediated expression system, and they were soluble and functionally active, with post-translational modifications similar to those found in mammalian cells. See Reid et al., Human estrogen receptor-α: Regulation by synthesis, modification and degradation, Cell. Mol. Life.
(§2) The following buffer solutions were used in the ER binding assays, and they were prepared beforehand and stored at 4° C. The binding buffer consisted of 10% glycerol, 2 mM dithiothreitol, 1 mg/mL BSA and 10 mM Tris-HCl at pH 7.5. The ERα washing buffer contained 40 mM Tris-HCl and 100 mM KCl (pH 7.4), but the ERG washing buffer contained only 40 mM Tris-HCl (adjusted to pH 7.4). The 50% hydroxylapatite slurry was prepared first by vigorously mixing 10 g hydroxylapatite with 60 mL of the Tris-HCl solution (50 mM, pH 7.4). Hydroxylapatite was then allowed to settle for 20 minutes at room temperature, and the supernatant was decanted. The above procedures were repeated 10 times, and afterwards hydroxylapatite was kept in the 50 mM Tris-HCl solution overnight at 4° C. Hydroxylapatite slurry was then adjusted to an approximate final concentration of 50% (v/v) using the same Tris-HCl solution and stored at 4° C., and the slurry was stable for up to several months.
(§3) Note that all of the estrogens were initially dissolved in pure ethanol to a stock concentration of 1 mM, and then further diluted to 100 μM with 20% aqueous ethanol. […] Immediately before the addition of the ERα or ERβ protein, it was diluted in the binding buffer and mixed gently with repetitive pipettings. […] The incubation mixture was then mixed gently and thoroughly with repetitive pipettings. […] The binding mixture was incubated at room temperature for two hours. At the end of the incubation, 100 μL of the hydroxylapatite slurry was added to each tube and the tubes were incubated on ice for 15 minutes with 3 times of brief vortexing. An aliquot (1 mL) of the appropriate washing buffer was added, mixed, and centrifuged at 10,000 g for five minutes, and the supernatants were discarded. This wash step was repeated twice. Hydroxylapatite pellets were then resuspended in 200 μL ethanol (followed by another rinse with 200 μL ethanol), and then the content was transferred to scintillation vials (containing 4 mL of the scintillation fluid) for measurement of ^3H-radioactivity with a liquid scintillation counter (Packard Tri-CARB 2900 TR; Downers Grove, Ill.).
(§4) To calculate the specific binding (pmol/mL) of the human ERα or ERβ protein at each concentration point, the following equation was used: […]
(§5) When a lower radioligand concentration is used, the corresponding IC50 value will also be relatively lower, but when the radioligand concentration increases, the corresponding IC50 value will also increase. […] Since the RBA value is a parameter that is independent of the radioligand concentration used, we thus have placed more emphasis on the RBA values instead of the absolute IC50 values in interpreting the physiological meanings of the data from in vitro receptor competition assays.

[2] = target: T2, recombinant human ERβ (Homo sapiens, UniProt Q92731); assay: ERβ binding assay: competition of [3H]E2 binding by competing estrogens; settings: for RBAβ (%) (relative binding affinity for ERβ, of E2): calculated against E2 = 100; for IC50: read-out: ERβ IC50; for binding affinity for ERβ (in words): concentrations up to 1000 nM
T2 construct: purchased PanVera Corporation (Madison, Wis.); host or cells: baculovirus-mediated expression system
T2 sequence (Q92731 whole entry): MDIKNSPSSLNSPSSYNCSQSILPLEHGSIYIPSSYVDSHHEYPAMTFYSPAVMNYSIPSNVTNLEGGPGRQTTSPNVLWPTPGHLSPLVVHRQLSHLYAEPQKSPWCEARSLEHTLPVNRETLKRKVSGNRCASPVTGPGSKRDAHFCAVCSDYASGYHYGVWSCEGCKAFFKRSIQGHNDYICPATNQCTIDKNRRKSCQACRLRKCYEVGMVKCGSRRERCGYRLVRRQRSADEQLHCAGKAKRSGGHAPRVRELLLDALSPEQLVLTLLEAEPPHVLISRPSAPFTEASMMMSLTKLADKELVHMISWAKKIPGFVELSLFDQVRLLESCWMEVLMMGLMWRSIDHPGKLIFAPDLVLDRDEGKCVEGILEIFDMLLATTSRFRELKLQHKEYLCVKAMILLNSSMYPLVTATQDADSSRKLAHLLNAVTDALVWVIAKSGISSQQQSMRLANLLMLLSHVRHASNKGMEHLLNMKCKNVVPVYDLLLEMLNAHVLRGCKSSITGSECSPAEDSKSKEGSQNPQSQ
Excerpt: as §1, §2, §3, §4, §5

[3] = [3H]E2 10 nM, competitor up to 1000 nM

Row | SMILES | RBAα % (relative binding affinity for ERα, of E2) [1] | RBAα/RBAβ [1] | IC50 [1] | RBAβ (%) (relative binding affinity for ERβ, of E2) [2] | IC50 [2] | binding affinity for ERα (in words) [1] | binding affinity for ERβ (in words) [2] | also measured
1 | Cc1cc(O)cc2c1[C@H]1CC[C@]3(C)[C@@H](O)CC[C@H]3[C@@H]1CC2 [1-Methyl-E2, 1-Methylestradiol] | 14% | 1.8 | 79.4 nM | 8% | 112 nM | – | – | RBAα/RBAβ ([1]; listed as 1-methylestradiol): about 1.8; decrease of binding affinity for ERα compared to E2 ([1]; relative to E2): approximately 90%; decrease of binding affinity for ERβ compared to E2 ([2]; relative to E2): approximately 90%
2 | COc1cc2c(cc1OC)[C@H]1CC[C@]3(C)C(=O)CC[C@H]3[C@@H]1CC2 [2,3-diMeO-E1, Estrone 2,3-dimethyl ether] | – | – | > 1000 nM | – | > 1000 nM | – | – | –
3 | COc1cc2c(cc1OC)C1CCC3(C)C(O)CCC3C1CC2 (stereo not drawn) [2,3-diMeO-E2, 17β-Estradiol 2,3-dimethyl ether] | – | – | > 1000 nM | – | > 1000 nM | – | – | –
4 | CC12CCC3c4cc(Br)c(O)cc4CCC3C1CCC2O (centres unmarked) [2-Br-E2, 2-Bromoestradiol] | 4% | 10 | 281 nM | < 0.5% and 0.4% | 2510 nM | – | – | RBAα/RBAβ ([1]; listed as 2-bromoestradiol): about 10
5 | CCOc1cc2c(cc1O)CCC1C2CCC2(C)C(O)CCC12 (centres unmarked) [2-Ethoxy-E2, 2-Ethoxyestradiol] | – | – | > 1000 nM | – | > 1000 nM | weak binding affinity | weak binding affinity | –
6 | COc1cc2c(cc1O)CC[C@@H]1[C@@H]2CC[C@]2(C)C(=O)CC[C@@H]12 [2-MeO-E1, 2-Methoxyestrone] | – | – | – | – | – | did not have appreciable binding affinity | did not have appreciable binding affinity | IC50 [1, 3]: > 1000 nM; RBAα/RBAβ determined by extrapolating the curves [1]: about 1; IC50 [2, 3]: > 1000 nM
7 | COc1cc2c(cc1O)CC[C@@H]1[C@@H]2CC[C@]2(C)[C@@H](O)CC[C@@H]12 [2-MeO-E2, 2-Methoxyestradiol] | 2% | 2 | – | 1% | – | – | – | IC50 [1, 3]: 501 nM; RBAα/RBAβ ([1]; listed as 2-methoxyestradiol): about 2; IC50 [2, 3]: 631 nM
8 | C[C@]12CC[C@@H]3c4cc(N)c(O)cc4CC[C@H]3[C@@H]1CCC2=O [2-NH2-E1, 2-Aminoestrone] | 3% | 7.5 | 398 nM | 0.4% | 2510 nM | very weak binding affinities | very weak binding affinities | RBAα/RBAβ ([1]; listed as 2-aminoestrone): about 7.5
9 | C[C@]12CC[C@@H]3c4cc([N+](=O)[O-])c(O)cc4CC[C@H]3[C@@H]1CCC2=O [2-NO2-E1, 2-Nitroestrone] | 1% | – | 1580 nM | – | > 1000 nM | very weak binding affinities | very weak binding affinities | RBAα/RBAβ determined by extrapolating the curves [1]: about 3; RBAα/RBAβ determined by extrapolating the curves ([1]; listed as 2-nitorestrone): ~3
10 | COc1cc2c(cc1O)[C@H]1CC[C@]3(C)C(=O)CC[C@H]3[C@@H]1CC2 [2-OH-3-MeO-E1, 2-Hydroxyestrone 3-methyl ether] | – | – | > 1000 nM | – | > 1000 nM | did not have appreciable binding affinity | did not have appreciable binding affinity | –
11 | COc1cc2c(cc1O)[C@H]1CC[C@]3(C)[C@@H](O)CC[C@H]3[C@@H]1CC2 [2-OH-3-MeO-E2, 2-Hydroxyestradiol 3-methyl ether] | – | – | > 1000 nM | – | > 1000 nM | substantially weaker binding affinity | substantially weaker binding affinity | –
